Assay results taken from patent publication US6875760B2 (Novo Nordisk A/S, priority 1999, dated 2005).

Each compound was assayed against T1, cloned human glucagon receptor (Homo sapiens, UniProt P47871) (assay: Glucagon Binding Assay (II)). Conditions: plasma membranes of BHK cells expressing the receptor; read-out: Glu Bd Assay (II) IC50.
T1 construct: expressed in transfected cells; plasma membrane preparation
T1 sequence (P47871 26-477): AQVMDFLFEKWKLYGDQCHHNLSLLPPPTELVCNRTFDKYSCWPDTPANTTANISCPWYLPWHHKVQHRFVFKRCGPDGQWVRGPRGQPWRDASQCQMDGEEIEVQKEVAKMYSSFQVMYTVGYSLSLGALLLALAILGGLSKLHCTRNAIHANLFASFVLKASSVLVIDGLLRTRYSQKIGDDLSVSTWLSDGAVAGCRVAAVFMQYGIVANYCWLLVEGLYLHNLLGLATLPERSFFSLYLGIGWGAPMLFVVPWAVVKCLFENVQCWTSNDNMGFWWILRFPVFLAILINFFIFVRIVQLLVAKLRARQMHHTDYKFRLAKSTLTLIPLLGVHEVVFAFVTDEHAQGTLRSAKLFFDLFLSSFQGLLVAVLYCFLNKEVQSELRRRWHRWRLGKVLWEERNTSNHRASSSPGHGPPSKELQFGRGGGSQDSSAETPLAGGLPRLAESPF

Row | IC50 [nM] | Structure (SMILES)
1 | 823 | O=C(O)CCNC(=O)c1ccc(CN(CCC(c2ccccc2)c2ccccc2)Cc2ccc3c(c2)OCO3)cc1 [Example 155, 3-(4-{[(3,3-Diphenylpropyl)-(3,4-methylenedioxybenzyl)amino]methyl}benzoylamino)propionic acid]
2 | 57 | CC(C)(C)[C@H]1CC[C@H](N(Cc2ccc(C(=O)NCCC(=O)O)cc2)Cc2cc(Cl)cc(Cl)c2)CC1 [Example 580, 3-(4-{[(trans-4-tert-Butylcyclohexyl)-(3,5-dichlorobenzyl)amino]methyl}benzoylamino)propionic acid]
3 | 167 | CC(C)(C)C1CCC(N(Cc2ccc(C(=O)NCCC(=O)O)cc2)C(=O)Nc2ccc3ccccc3c2)CC1 (stereo not shown) [Example 102, 3-{4-[1-(4-tert-Butylcyclohexyl)-3-naphthalen-2-ylureidomethyl]benzoylamino)propionic acid]
4 | 7 | CC(C)(C)[C@H]1CC[C@H](N(Cc2ccc(C(=O)Nc3nn[nH]n3)cc2)C(=O)Nc2ccc(OC(F)(F)F)cc2)CC1 [Example 158, 4-[1-(trans-4-tert-Butylcyclohexyl)-3-(4-trifluoromethoxyphenyl)ureidomethyl]-N-(2H-tetrazol-5-yl)benzamide]
5 | 687 | CC(C)(C)C1CCC(N(Cc2ccc(C(=O)NCCC(=O)O)cc2)C(=O)CNC(=O)OCC2c3ccccc3-c3ccccc32)CC1 (stereo not shown)
6 | 284 | O=C(Nc1nn[nH]n1)c1ccc(CN(Cc2cccc(Br)c2)c2ccc(C3CCCCC3)cc2)cc1 [Example 584, 4-{[(3-Bromobenzyl)-(4-cyclohexylphenyl)amino]methyl}-N-(2H-tetrazol-5-yl)benzamide]

Same assay, conditions: screened at 1 μM; library compounds; read-out: displacement of the glucagon tracer when screened at 1 μM concentration in the glucagon binding assay II

Row | inhibition at 1 µM [%] | Structure (SMILES)
7 | > 50 | O=C(O)CCN1C(=O)c2ccc(CN(C(=O)Nc3ccc(OC(F)(F)F)cc3)c3ccc4nc(S)sc4c3)cc2C1=O [Example 228, 3-{5-[1-(2-Mercaptobenzothiazol-6-yl)-3-(4-trifluoromethoxyphenyl)ureidomethyl]-1,3-dioxo-1,3-dihydro-isoindol-2-yl}propionic acid]
8 | > 50 | O=C(O)CCNC(=O)c1ccc(CN(CC2(O)CCCCC2)C(=O)Nc2ccc3c(c2)OCO3)cc1 [Example 123, 3-{4-[1-(1-Hydroxycyclohexylmethyl)-3-(3,4-methylenedioxyphenyl)ureidomethyl]benzoylamino)propionic acid]
9 | > 50 | O=C(O)CCNC(=O)c1ccc(CN(CCc2cccc(Cl)c2)C(=O)Nc2ccc(Cl)c(C(F)(F)F)c2)cc1 [Example 181, 3-{4-[1-[2-(3-Chlorophenyl)ethyl]-3-(4-chloro-3-trifluoromethylphenyl)ureidomethyl]benzoylamino}propionic acid]
10 | > 50 | O=C(O)CCNC(=O)c1ccc(CN(C(=O)Nc2ccc(Cl)c(C(F)(F)F)c2)c2nc3cc(Cl)c(Cl)cc3[nH]2)cc1 [Example 195, 3-{4-[3-(4-Chloro-3-trifluoromethylphenyl)-1-(5,6-dichloro-1H-benzimidazol-2-yl)ureidomethyl]benzoylamino}propionic acid]
11 | > 50 | COc1ccc(CN(Cc2ccc(C(C)C)cc2)Cc2ccc(C(=O)NCCC(=O)O)s2)cc1OC [Example 150, 3-(5-{[(3,4-Dimethoxybenzyl)-(4-isopropylbenzyl)amino]methyl}thiophene-2-carbonylamino)propionic acid]
12 | > 50 | CC(C)(C)C1CCC(N(Cc2ccc(C(=O)Nc3ccc4c(c3)OCCO4)cc2)C(=O)Nc2cc(Cl)cc(Cl)c2)CC1 (stereo not shown) [Example 168, 4-[1-(4-tert-Butylcyclohexyl)-3-(3,5-dichlorophenyl)ureidomethyl]-N-(2,3-dihydro-1,4-benzodioxin-6-yl)benzamide]
13 | > 50 | CC1(C)C2CCC(CN(Cc3ccc(C(=O)NCCC(=O)O)cc3)C(=O)Nc3cccc(SC(F)(F)F)c3)C1C2 (stereo not shown) [Example 204, 3-{4-[1-(6,6-Dimethylbicyclo[3.1.1]hept-2-ylmethyl)-3-(3-trifluoromethylsulfanylphenyl)ureidomethyl]benzoylamino}propionic acid]
